For experiment [1] the following is noted: in vivo; cited from earlier work.
Experiment [2] concerns over 100 different receptors, ion channels, transporters, and enzymes including NMDA, AMPA, metabotropic glutamate receptors and glutamate transporters. As to conditions: cited from earlier work.
The subject of experiment [3] is C57/BL mice. The experiment in a line: animal or person. As to conditions: for ED50: Mus musculus, sc. Type of experiment: in vivo. The method, then: (§1) Male C57/BL mice (IMP, Lodz, Poland), 22-24 g of body weight were group-housed in the standard laboratory cages and kept in a temperature-controlled colony room (21+2° C.) with a 12-hr light/dark cycle (light on: 07:00, off: 19:00). Commercial food and tap water were available ad libitum. Each experimental group consisted of 7-28 mice per treatment. All mice were used only once.
(§2) The intensity of the heat stimulus was adjusted so that the baseline tail-flick latency was ˜3 s. […] Each response assessment consisted of two separate measurements taken at different portions of the tail (spaced by 1.5-2 cm) and separated by 15 s. The mean of these responses was used for subsequent comparisons.

In experiment [4] the test system is C57/BL mice. The experiment in a line: Acute effects in the tail-flick test (Experiment 2). Type of experiment: in vivo. How it is done:
as §1, §2

Experiment [5] has as its target T1, NAALADase (Homo sapiens, UniProt Q04609). Description: In vitro inhibition of NAALADase activity. Type of experiment: biochemical. Particulars: for IC50: read-out: IC50.
Experiment [6] addresses T1, NAALADase. Particulars: read-out: Km of NAALADase for NAAG; cited from earlier work.
Experiment [7] deals with mGluRII receptors (mGluR3) (Homo sapiens, UniProt Q14832). Particulars: read-out: EC50 as direct agonist at mGluRII receptors; cited from earlier work.

SMILES strings stand for the structures. “Also recorded” adds a separate entry of the source. Peptide text beside a SMILES is read from it.

T1 sequence (Q04609 whole entry): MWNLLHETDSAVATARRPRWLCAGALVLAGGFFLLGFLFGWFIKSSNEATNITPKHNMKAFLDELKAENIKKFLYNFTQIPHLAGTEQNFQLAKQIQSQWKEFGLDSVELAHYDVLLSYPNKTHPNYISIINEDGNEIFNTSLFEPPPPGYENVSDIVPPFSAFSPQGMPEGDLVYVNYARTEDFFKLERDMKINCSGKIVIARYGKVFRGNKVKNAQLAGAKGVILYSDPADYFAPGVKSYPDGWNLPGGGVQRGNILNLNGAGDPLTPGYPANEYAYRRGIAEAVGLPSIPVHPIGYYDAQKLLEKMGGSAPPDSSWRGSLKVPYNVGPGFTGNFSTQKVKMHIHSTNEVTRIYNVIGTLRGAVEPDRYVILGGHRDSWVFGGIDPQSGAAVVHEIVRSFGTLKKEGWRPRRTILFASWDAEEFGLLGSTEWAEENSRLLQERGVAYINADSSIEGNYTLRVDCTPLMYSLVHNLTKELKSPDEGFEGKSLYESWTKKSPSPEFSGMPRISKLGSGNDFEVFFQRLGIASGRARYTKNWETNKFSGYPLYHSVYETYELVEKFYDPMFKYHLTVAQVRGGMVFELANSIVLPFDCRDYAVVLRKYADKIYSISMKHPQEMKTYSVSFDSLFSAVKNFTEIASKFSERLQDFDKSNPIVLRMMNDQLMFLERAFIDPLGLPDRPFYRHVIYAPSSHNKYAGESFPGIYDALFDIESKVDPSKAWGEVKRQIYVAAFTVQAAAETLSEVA
Chain of mGluRII receptors (mGluR3) (Q14832 23-879): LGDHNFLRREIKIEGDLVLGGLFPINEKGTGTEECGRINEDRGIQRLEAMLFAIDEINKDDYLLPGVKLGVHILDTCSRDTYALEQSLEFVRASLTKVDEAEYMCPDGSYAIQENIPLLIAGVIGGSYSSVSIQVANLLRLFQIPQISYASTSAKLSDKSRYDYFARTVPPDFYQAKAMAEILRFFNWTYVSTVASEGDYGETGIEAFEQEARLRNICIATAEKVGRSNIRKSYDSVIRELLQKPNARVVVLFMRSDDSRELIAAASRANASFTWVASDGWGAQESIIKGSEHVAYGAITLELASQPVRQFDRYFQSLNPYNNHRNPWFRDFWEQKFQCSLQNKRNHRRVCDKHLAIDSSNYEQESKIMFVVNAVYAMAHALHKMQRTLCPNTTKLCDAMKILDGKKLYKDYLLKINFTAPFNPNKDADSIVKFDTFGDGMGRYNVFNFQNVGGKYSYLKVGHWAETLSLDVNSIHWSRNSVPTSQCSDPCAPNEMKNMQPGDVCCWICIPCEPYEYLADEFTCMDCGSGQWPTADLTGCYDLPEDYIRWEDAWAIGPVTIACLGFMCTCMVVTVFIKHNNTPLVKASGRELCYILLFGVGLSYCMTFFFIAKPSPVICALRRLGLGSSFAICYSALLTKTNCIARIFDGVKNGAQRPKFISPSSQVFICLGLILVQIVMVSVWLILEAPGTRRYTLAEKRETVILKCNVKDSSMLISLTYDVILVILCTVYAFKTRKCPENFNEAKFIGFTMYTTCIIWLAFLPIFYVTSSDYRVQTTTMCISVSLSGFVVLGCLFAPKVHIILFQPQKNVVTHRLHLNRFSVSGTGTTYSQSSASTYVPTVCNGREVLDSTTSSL

`NC1(C(=O)O)CCC2C(C(=O)O)C21` (single isomer, unassigned; (+)) [LY354740, (+)-2-aminobicyclo [3,1,0] hexane-2,6-dicarboxylic acid]: the “development of morphine tolerance” value in experiment [1] is listed as “inhibit the development of morphine tolerance”.
As to `O=C(O)CCC(CP(=O)(O)O)C(=O)O` (stereo not drawn) [2-PMPA, 2-phosphonomethyl pentanedioic acid], the “affinity for over 100 different receptors, ion channels, transporters, and enzymes” value in experiment [2] is reported as “no apparent affinity”. Moreover, in experiment [3] (2-PMPA 50 or 100 mg/kg given prior to each dose of morphine), the “effect on the development of morphine tolerance” value is “attenuated the development of morphine tolerance”. Further, the “effect on antinociceptive effects of morphine” value in experiment [4] (100 mg/kg 2-PMPA i.p. 30 min before 1.5 or 3 mg/kg morphine s.c.) was “did not affect antinociceptive effects; also recorded: did not differ”. In experiment [4] (100 mg/kg of 2-PMPA i.p. + placebo), the “tail-flick responses (AUC) compared to placebo+placebo” value was “did not affect tail-flick responses; also recorded: did not differ from placebo+placebo treatment”.
For the molecule `O=C(O)c1cc(CP(=O)(O)O)cc(C(=O)O)c1` [5-phosphonomethyl-1,3-benzenedicarboxylic acid], the inhibition constant (Ki) in experiment [5] is 3100 nM.
Consider `O=C(NO)c1ccc(O)c(C(=O)O)c1` [6,N-Dihydroxy-isophthalamic acid], for which the concentration for half-maximal inhibition (IC50) in experiment [5] is not below 100000 nM.
Take `O=C(O)c1cccc(CC(CCCS)C(=O)O)c1-c1ccccc1` (stereo not drawn) [6-(2-carboxy-5-mercaptopentyl)-[1,1′-biphenyl]-2-carboxylic acid]: in experiment [5], the half-inhibitory concentration (IC50) was determined as 70 nM.
With `COC(=O)c1cc(C(=O)NO)ccc1OCc1ccccc1` [6-Benzyloxy-N-hydroxy-isophthalamic acid methyl ester], the 50% inhibitory concentration (IC50) in experiment [5] was not below 100000 nM.
Still for that read-out and setting: the value for `O=C(NO)c1ccc(OCc2ccccc2)c(C(=O)O)c1` [6-Benzyloxy-N-hydroxy-isophthalamic acid] was not below 100000 nM.
In the case of `CC12CC3CC(C)(C1)CC(N)(C3)C2` [Memantine, memantine], the “effect on the development of morphine tolerance” value in experiment [3] (mouse, in vivo) is “produced an inhibition of morphine tolerance”.
Take `CN1CC[C@]23c4c5ccc(O)c4O[C@H]2[C@@H](O)C=C[C@H]3[C@H]1C5` [Morphine]: the ED50 was 1.49 ± 0.26 mg/kg in experiment [3] (24 h, read-out: Test #1 ED50 (morphine antinociceptive)); 8.85 ± 2.22 mg/kg in experiment [3] (192 h, read-out: Test #2 ED50 (morphine antinociceptive)); 3 mg/kg in experiment [4] (Mus musculus, sc, read-out: antinociceptive ED50 dose).
Consider `O=C(NO)c1cc(OCC(F)(F)F)ccc1OCC(F)(F)F` [N-Hydroxy-2,5-bis-(2,2,2-trifluoro-ethoxy)-benzamide], for which the IC50 in experiment [5] was not below 100000 nM.
Take `Cc1ccc(C(=O)c2ccccc2C(=O)NO)cc1` [N-Hydroxy-2-(4-methyl-benzoyl)-benzamide]: the IC50 in experiment [5] is not below 100000 nM.
Regarding `CC(=O)N[C@@H](CC(=O)O)C(=O)N[C@@H](CCC(=O)O)C(=O)O` [NAAG, N-acetyl-aspartyl-glutamate] (Ac-Asp-Glu-OH), the Michaelis constant (Km) in experiment [6] was 0.54 µM. Further, the half-maximal effective concentration (EC50) in experiment [7] is approximately 26000 nM.
On to `COc1ccc(OC)c(CC(CCCS)C(=O)O)c1` (stereo not drawn) [alpha-(3-mercaptopropyl)-2,5-dimethoxy-benzenepropanoic acid], for which the IC50 in experiment [5] worked out at 566 nM.
Turning to `O=C(O)C(CCCS)Cc1ccc2ccccc2c1` (stereo not drawn) [alpha-(3-mercaptopropyl)-2-naphthalenepropanoic acid], the IC50 in experiment [5] was determined as 1130 nM.
Regarding `O=C(O)C(CCCS)Cc1cccc(C(F)(F)F)c1` (stereo not drawn) [alpha-(3-mercaptopropyl)-3-(trifluoromethyl)-benzenepropanoic acid], in experiment [5], the IC50 stood at 4000 nM.
On to `O=C(NCc1ccccc1)c1cccc(CC(CCCS)C(=O)O)c1` (stereo not drawn) [alpha-(3-mercaptopropyl)-3-[[(phenylmethyl)amino]carbonyl]-benzenepropanoic acid], for which the IC50 in experiment [5] amounted to 1130 nM.
The same measure, in the same setting: the result for `O=C(O)C(CCCS)Cc1cccc(Oc2ccccc2)c1` (stereo not drawn) [alpha-(3-mercaptopropyl)-3-phenoxy-benzenepropanoic acid] reads 308 nM.
On the same count and under the same terms, the value for `O=C(O)C(CCCS)Cc1cccc(-c2ccccc2)c1` (stereo not drawn) [alpha-(3-mercaptopropyl)-3-phenyl-benzenepropanoic acid] was 181 nM.
Same read-out and setting: the result for `CS(=O)(=O)c1ccc(CC(CCCS)C(=O)O)cc1` (stereo not drawn) [alpha-(3-mercaptopropyl)-4-(methylsulfonyl)-benzenepropanoic acid] reads 211 nM.
As for `O=C(O)C(CCCS)Cc1ccc(-c2ccccc2)cc1` (stereo not drawn) [alpha-(3-mercaptopropyl)-4-phenyl-benzenepropanoic acid], the IC50 in experiment [5] is 229 nM.
The same measure, in the same setting: the result for `O=C(O)C(CCCS)Cc1ccccc1` (stereo not drawn) [alpha-(3-mercaptopropyl)-benzenepropanoic acid] reads 2270 nM.
